# Values of other authors in patent publication US20220313663A1, “ELTROMBOPAG DOSING REGIMEN” (NOVARTIS PHARMACEUTICALS CORPORATION, priority 2019, published 2022).
# Conditions: subjects with Asian ancestry compared to the non-Asian population
structure (smiles),measurement,value
CC1=NN(c2ccc(C)c(C)c2)C(=O)/C1=N\Nc1cccc(-c2cccc(C(=O)O)c2)c1O [eltrombopag],eltrombopag clearance (CL/F),lower
